Experiments:
[1] = molecular target: T1, Avi-KRAS G12V (1-169) GppNHp/RAF1 RBD-3xFLAG (52-151) (Homo sapiens, UniProt P01116, G12V); assay: Raf1-KRAS G12V-GppNHP disruption HTRF assay (Biological Example 1); format: binding; conditions: KRAS G12V, GppNHp-loaded; Table 11
T1 construct: Avi-KRAS G12V (1-169)
Outline: (§1)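 Read-out is HTRF signal of the KRAS–RAF1 RBD complex, reported as percentage of activity relative to DMSO (100%). Protein mix and detection reagents each incubated 1 h at room temperature with 700 rpm shaking. Buffer: 50 mM Tris pH 7.5, 100 mM NaCl, 5 mM MgCl2, 0.1% BSA, 0.01% Tween, 10% DMSO.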

[2] = molecular target: T2, Avi-KRAS G12D (1-169) GppNHp/RAF1 RBD-3xFLAG (52-151) (Homo sapiens, UniProt P01116, G12D); assay: Raf1-KRAS G12D-GppNHP disruption HTRF assay (Biological Example 1); format: binding; conditions: KRAS G12D, GppNHp-loaded; Table 11
T2 construct: Avi-KRAS G12D (1-169)
T2 sequence (P01116 1-169 isoform P01116-2 G12D): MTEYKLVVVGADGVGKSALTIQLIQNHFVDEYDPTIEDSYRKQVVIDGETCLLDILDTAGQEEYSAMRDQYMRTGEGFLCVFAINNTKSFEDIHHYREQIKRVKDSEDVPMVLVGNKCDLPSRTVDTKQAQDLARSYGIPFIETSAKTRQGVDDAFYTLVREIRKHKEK
Outline: as §1

[3] = molecular target: T3, Avi-KRAS WT (1-169) GppNHp/RAF1 RBD-3xFLAG (52-151) (Homo sapiens, UniProt P01116); assay: Raf1-KRAS WT-GppNHP disruption HTRF assay (Biological Example 1); format: binding; conditions: KRAS WT, GppNHp-loaded; Table 11
T3 construct: Avi-KRAS WT (1-169)
T3 sequence (P01116 1-169 isoform P01116-2): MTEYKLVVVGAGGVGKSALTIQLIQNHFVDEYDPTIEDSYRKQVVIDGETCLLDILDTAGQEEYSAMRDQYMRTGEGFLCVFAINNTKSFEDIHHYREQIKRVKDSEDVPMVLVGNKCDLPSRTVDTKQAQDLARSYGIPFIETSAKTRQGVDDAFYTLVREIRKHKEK
Outline: as §1

GP2d cells (KRAS G12D) = assay: Cell-based pERK HTRF assay in GP2d cell (Biological Example 2); conditions: GP2d (KRAS G12D) cells, pERK HTRF
Outline: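 Phospho-ERK is measured by HTRF following a 60 min compound exposure at 0.25% DMSO, with a 9-point half-log curve topping at 1 μM or 100 nM.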

[4] = molecular target: T4, Avi-KRAS G12R (1-169) GppNHp/RAF1 RBD-3xFLAG (52-151) (Homo sapiens, UniProt P01116, G12R); assay: Raf1-KRAS G12R-GppNHP disruption HTRF assay (Biological Example 1); format: binding; conditions: KRAS G12R, GppNHp-loaded; Table 11
T4 construct: Avi-KRAS G12R (1-169)
T4 sequence (P01116 1-169 isoform P01116-2 G12R): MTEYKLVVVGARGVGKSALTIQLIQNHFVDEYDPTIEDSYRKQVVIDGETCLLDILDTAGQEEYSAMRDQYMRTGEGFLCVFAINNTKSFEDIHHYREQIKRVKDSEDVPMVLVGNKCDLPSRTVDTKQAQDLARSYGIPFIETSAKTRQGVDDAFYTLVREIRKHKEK
Protocol: A protein:protein interaction (PPI) Homogeneous Time Resolved Fluorescence (HTRF) assay was used to determine the effectiveness of compounds of the present disclosure in disrupting KRAS protein and effector RAF1 binding.
The assay buffer included: 50 mM Tris pH 7.5, 100 mM NaCl, 5 mM MgCl2, 0.1% BSA, 0.01% Tween, and 10% DMSO. The bead buffer included: 50 mM Tris pH 7.5, and 0.01% Tween 20. Assay volume of 20 μL was used in a 384 well plate-low volume format.
The HTRF assay employed the following protocol:
Protein mix was prepared in assay buffer, and dispensed on plates, 10 μL per well, then incubated for 1 h at room temperature, with 700 rpm shaking, Reagents mix was prepared and dispensed on plates, 10 μL per well, then incubated for 1 h at room temperature, with 700 rpm shaking.
Data was reported as percentage of activity, with DMSO as 100%. Data was plotted and analyzed using Prism 8.

T1 sequence (P01116 1-169 isoform P01116-2 G12V): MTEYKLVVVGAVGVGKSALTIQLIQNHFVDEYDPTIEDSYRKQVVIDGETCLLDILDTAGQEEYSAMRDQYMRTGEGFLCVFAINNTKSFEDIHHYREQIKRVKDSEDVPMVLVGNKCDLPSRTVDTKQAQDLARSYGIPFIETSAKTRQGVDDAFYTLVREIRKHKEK

| Structure (SMILES) | IC50 [1] [nM] | IC50 [2] [nM] | IC50 [3] [nM] | IC50 (GP2d cells (KRAS G12D)) [nM] | IC50 [4] [nM] | IC50 (GP2d cells (KRAS G12D); GP2d) [nM] |
| --- | --- | --- | --- | --- | --- | --- |
| CCN(CCO)c1nc(OC[C@@H]2CC3(CC3)CN2C)nc2c(F)c(-c3ccc(F)c4sc(N)c(C#N)c34)c(C(F)(F)F)cc12 [Compound 180] | 100 to 1000 | 100 to 1000 | 100 to 1000 | – | 100 to 1000 | < 100 |
| CO[C@H]1C[C@@H](N(C)c2nc(OC[C@@]34CCCN3C[C@H](F)C4)nc3c(F)c(-c4ccc(F)c5sc(N)c(C#N)c45)c(C(F)(F)F)cc23)C1 [Compound 27] | 1000 to 10000 | 100 to 1000 | 100 to 1000 | – | 100 to 1000 | < 100 |
| N#Cc1c(N)sc2c(F)ccc(-c3c(C(F)(F)F)cc4c(N5CC[C@@H](CO)C5)nc(OC[C@@]56CCCN5C[C@H](F)C6)nc4c3F)c12 [Compound 124] | 100 to 1000 | 100 to 1000 | 100 to 1000 | – | 100 to 1000 | 100 to 1000 |
| CC(=O)N1CCN(c2nc(OC[C@@]34CCCN3C[C@H](F)C4)nc3c(F)c(-c4ccc(F)c5sc(N)c(C#N)c45)c(C(F)(F)F)cc23)CC1 [Compound 100] | 1000 to 10000 | 100 to 1000 | 100 to 1000 | – | 100 to 1000 | < 100 |
| N#Cc1c(N)sc2c(F)ccc(-c3c(C(F)(F)F)cc4c(N5CCCC5)nc(OC[C@@]56CCCN5C[C@H](F)C6)nc4c3F)c12 [Compound 156] | 100 to 1000 | 100 to 1000 | 100 to 1000 | – | 100 to 1000 | < 100 |
| CCN(CCO)c1nc(OC[C@@H]2C[C@@H](OC)CN2C)nc2c(F)c(-c3ccc(F)c4sc(N)c(C#N)c34)c(C(F)(F)F)cc12 [Compound 178] | 1000 to 10000 | 100 to 1000 | 1000 to 10000 | < 100 | 100 to 1000 | – |
| CN(c1nc(OC[C@@]23CCCN2C[C@H](F)C3)nc2c(F)c(-c3ccc(F)c4sc(N)c(C#N)c34)c(C(F)(F)F)cc12)C1CCC1 [Compound 22] | 100 to 1000 | 100 to 1000 | 100 to 1000 | – | 100 to 1000 | < 100 |
| CO[C@@H]1C[C@@H](COc2nc(N(C)C3CC(O)C3)c3cc(C(F)(F)F)c(-c4ccc(F)c5sc(N)c(C#N)c45)c(F)c3n2)N(C)C1 (some centres unmarked) [Compound 40] | 100 to 1000 | 100 to 1000 | 100 to 1000 | – | 100 to 1000 | < 100 |
| C[C@H](CO)N(C)c1nc(OC[C@@]23CCCN2C[C@H](F)C3)nc2c(F)c(-c3ccc(F)c4sc(N)c(C#N)c34)c(C(F)(F)F)cc12 [Compound 76] | 100 to 1000 | < 100 | 100 to 1000 | – | 100 to 1000 | < 100 |
| CN(c1nc(OC[C@@]23CCCN2C[C@H](F)C3)nc2c(F)c(-c3ccc(F)c4sc(N)c(C#N)c34)c(C(F)(F)F)cc12)[C@@H]1CCS(=O)(=O)C1 [Compound 93] | 100 to 1000 | 100 to 1000 | 100 to 1000 | – | 100 to 1000 | < 100 |
| CN(CC(F)F)c1nc(OC[C@@]23CCCN2C[C@H](F)C3)nc2c(F)c(-c3ccc(F)c4sc(N)c(C#N)c34)c(C(F)(F)F)cc12 [Compound 164] | 100 to 1000 | 100 to 1000 | 100 to 1000 | – | 100 to 1000 | < 100 |
| CCN(C)c1nc(OC[C@@]23CCCN2C[C@H](F)C3)nc2c(F)c(-c3ccc(F)c4sc(N)c(C#N)c34)c(C(F)(F)F)cc12 [Compound 81, 2-amino-4-[4-[ethyl(methyl)amino]-8-fluoro-2-[[(2R,8S)-2-fluoro-1,2,3,5,6,7-hexahydropyrrolizin-8-yl]methoxy]-6-(trifluoromethyl)quinazolin-7-yl]-7-fluoro-benzothiophene-3-carbonitrile] | 100 to 1000 | < 100 | 100 to 1000 | – | < 100 | < 100 |
| CS(=O)(=O)N1CCN(c2nc(OC[C@@]34CCCN3C[C@H](F)C4)nc3c(F)c(-c4ccc(F)c5sc(N)c(C#N)c45)c(C(F)(F)F)cc23)CC1 [Compound 96] | 1000 to 10000 | 1000 to 10000 | 1000 to 10000 | – | 1000 to 10000 | < 100 |
| CN(c1nc(OC[C@@]23CCCN2C[C@H](F)C3)nc2c(F)c(-c3ccc(F)c4sc(N)c(C#N)c34)c(C(F)(F)F)cc12)[C@H]1CCN(S(C)(=O)=O)C1 [Compound 119] | 1000 to 10000 | 1000 to 10000 | 100 to 1000 | – | 1000 to 10000 | < 100 |

The remaining lines, values ahead:

| IC50 [1] [nM] | IC50 [2] [nM] | IC50 [3] [nM] | IC50 (GP2d cells (KRAS G12D)) [nM] | IC50 [4] [nM] | IC50 (GP2d cells (KRAS G12D); GP2d) [nM] | Structure (SMILES) |
| --- | --- | --- | --- | --- | --- | --- |
| 100 to 1000 | 100 to 1000 | 100 to 1000 | 100 to 1000 | 100 to 1000 | – | CN(c1nc(OC[C@@]23CCCN2C[C@H](F)C3)nc2c(F)c(-c3ccc(F)c4sc(N)c(C#N)c34)c(C(F)(F)F)cc12)C1CCC(O)CC1 (some centres unmarked) [Compound 66] |
| 100 to 1000 | < 100 | 100 to 1000 | – | 100 to 1000 | < 100 | CN(CCO)c1nc(OC[C@@]23CCCN2C[C@H](F)C3)nc2c(F)c(-c3ccc(F)c4sc(N)c(C#N)c34)c(C(F)(F)F)cc12 [Compound 70, 2-amino-7-fluoro-4-(8-fluoro-2-(((2R,7aS)-2-fluorotetrahydro-1H-pyrrolizin-7a(5H)-yl)methoxy)-4-((2-hydroxyethyl)(methyl)amino)-6-(trifluoromethyl)quinazolin-7-yl)benzo[b]thiophene-3-carbonitrile] |
| 100 to 1000 | 100 to 1000 | 100 to 1000 | – | 100 to 1000 | < 100 | CC1(CO)CCN(c2nc(OCC34CCCN3CC(F)C4)nc3c(F)c(-c4ccc(F)c5sc(N)c(C#N)c45)c(C(F)(F)F)cc23)CC1 (centres unmarked) [Compound 48] |
| 100 to 1000 | 100 to 1000 | 100 to 1000 | – | 100 to 1000 | < 100 | N#Cc1c(N)sc2c(F)ccc(-c3c(C(F)(F)F)cc4c(N5CC[C@@H](O)C5)nc(OC[C@@]56CCCN5C[C@H](F)C6)nc4c3F)c12 [Compound 126] |
| 100 to 1000 | 100 to 1000 | 100 to 1000 | – | 100 to 1000 | < 100 | CN(c1nc(OC[C@@]23CCCN2C[C@H](F)C3)nc2c(F)c(-c3ccc(F)c4sc(N)c(C#N)c34)c(C(F)(F)F)cc12)C1(CO)CC1 [Compound 170] |
| 100 to 1000 | < 100 | 100 to 1000 | – | 100 to 1000 | < 100 | N#Cc1c(N)sc2c(F)ccc(-c3c(C(F)(F)F)cc4c(N5CC6CCC(C5)C6CO)nc(OC[C@@]56CCCN5C[C@H](F)C6)nc4c3F)c12 (some centres unmarked) [Compound 47] |
| 100 to 1000 | 100 to 1000 | 100 to 1000 | – | 100 to 1000 | < 100 | CN1CCC[C@H]1COc1nc(N(C)[C@H]2C[C@@H](O)C2)c2cc(C(F)(F)F)c(-c3ccc(F)c4sc(N)c(C#N)c34)c(F)c2n1 [Compound 35] |
| 100 to 1000 | 100 to 1000 | 100 to 1000 | – | 100 to 1000 | < 100 | COC[C@@H]1[C@H](N(C)c2nc(OC[C@@]34CCCN3C[C@H](F)C4)nc3c(F)c(-c4ccc(F)c5sc(N)c(C#N)c45)c(C(F)(F)F)cc23)CCN1C(C)=O [Compound 117] |
| 100 to 1000 | < 100 | 100 to 1000 | – | 100 to 1000 | < 100 | C[C@@H](CO)N(C)c1nc(OC[C@@]23CCCN2C[C@H](F)C3)nc2c(F)c(-c3ccc(F)c4sc(N)c(C#N)c34)c(C(F)(F)F)cc12 [Compound 77] |
| 100 to 1000 | < 100 | 100 to 1000 | – | 100 to 1000 | < 100 | C[C@H](O)CN(C)c1nc(OC[C@@]23CCCN2C[C@H](F)C3)nc2c(F)c(-c3ccc(F)c4sc(N)c(C#N)c34)c(C(F)(F)F)cc12 [Compound 72] |
| 1000 to 10000 | 100 to 1000 | 100 to 1000 | – | 100 to 1000 | < 100 | N#Cc1c(N)sc2c(F)ccc(-c3c(C(F)(F)F)cc4c(N5C[C@@H](F)[C@@H](F)C5)nc(OC[C@@]56CCCN5C[C@H](F)C6)nc4c3F)c12 [Compound 157] |

Reference: patent publication US20260042764A1, “COMPOSITIONS AND METHODS FOR INHIBITION OF KRAS” (TheRas, Inc., priority 2022, published 2026)
